Data taken from ChEMBL document CHEMBL1201861, “Genomics of Drug Sensitity in Cancer screening data, Wellcome Trust Sanger Institute”.

Key:
EB-3 = assay: cells; assay type: functional, cell-based, Homo sapiens; conditions: Homo sapiens, EB-3;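 note: human EB-3 cells, growth inhibition read out via a cell viability assay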
Description: SANGER: Inhibition of human EB-3 cell growth in a cell viability assay.

J82 = assay: cells; assay type: functional, cell-based, Homo sapiens; conditions: Homo sapiens, J82;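 note: growth inhibition of J82 cells, read out with a cell viability assay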
Description: SANGER: Inhibition of human J82 cell growth in a cell viability assay.

TCC-SUP = assay: cells; assay type: functional, cell-based, Homo sapiens; conditions: Homo sapiens, TCC-SUP;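 note: growth inhibition of TCC-SUP cells, read out with a cell viability assay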
Description: SANGER: Inhibition of human TCCSUP cell growth in a cell viability assay.

MFE-280 = assay: cells; assay type: functional, cell-based, Homo sapiens; conditions: Homo sapiens, MFE-280;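 note: growth inhibition of MFE-280 cells, determined with a cell viability readout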
Description: SANGER: Inhibition of human MFE-280 cell growth in a cell viability assay.

SCC-9 = assay: cells; assay type: functional, cell-based, Homo sapiens; conditions: Homo sapiens, SCC-9;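 note: Read-out is a cell viability assay, with values giving inhibition of cell growth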
Description: SANGER: Inhibition of human SCC-9 cell growth in a cell viability assay.

MC-IXC = assay: cells; assay type: functional, cell-based, Homo sapiens; conditions: Homo sapiens, MC-IXC;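 note: growth inhibition of MC-IXC cells, read out with a cell viability assay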
Description: SANGER: Inhibition of human MC-IXC cell growth in a cell viability assay.

A673 = assay: cells; assay type: functional, cell-based, Homo sapiens; conditions: Homo sapiens, A673;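 note: growth inhibition of human A673 cells, read out through a cell viability assay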
Description: SANGER: Inhibition of human A673 cell growth in a cell viability assay.

HCT-15 = assay: cells; assay type: functional, cell-based, Homo sapiens; conditions: Homo sapiens, HCT-15;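 note: cell viability readout, IC50 reflecting suppression of HCT-15 cell growth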
Description: SANGER: Inhibition of human HCT-15 cell growth in a cell viability assay.

RT-112 = assay: cells; assay type: functional, cell-based, Homo sapiens; conditions: Homo sapiens, RT-112
Description: SANGER: Inhibition of human RT-112 cell growth in a cell viability assay.

NCI-H28 = assay: cells; assay type: functional, cell-based, Homo sapiens; conditions: Homo sapiens, NCI-H28;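 note: growth inhibition of human NCI-H28 cells, read out as cell viability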
Description: SANGER: Inhibition of human NCI-H28 cell growth in a cell viability assay.

MIA PaCa-2 = assay: cells; assay type: functional, cell-based, Homo sapiens; conditions: Homo sapiens, MIA PaCa-2;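 note: growth inhibition of MIA PaCa-2 cells, read out with a cell viability assay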
Description: SANGER: Inhibition of human MIA-PaCa-2 cell growth in a cell viability assay.

NCI-H650 = assay: cells; assay type: functional, cell-based, Homo sapiens; conditions: Homo sapiens, NCI-H650;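 note: growth inhibition of NCI-H650 cells, read out by a viability assay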
Description: SANGER: Inhibition of human NCI-H650 cell growth in a cell viability assay.

NCI-H2087 = assay: cells; assay type: functional, cell-based, Homo sapiens; conditions: Homo sapiens, NCI-H2087;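 note: growth inhibition determined with a cell viability readout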
Description: SANGER: Inhibition of human NCI-H2087 cell growth in a cell viability assay.

GCT = assay: cells; assay type: functional, cell-based, Homo sapiens; conditions: Homo sapiens, GCT;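 note: GCT cell line proliferation inhibition, read out with a cell viability assay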
Description: SANGER: Inhibition of human GCT cell growth in a cell viability assay.

786-0 = assay: cells; assay type: functional, cell-based, Homo sapiens; conditions: Homo sapiens
Description: SANGER: Inhibition of human 786-0 cell growth in a cell viability assay.

HPAF-II = assay: cells; assay type: functional, cell-based, Homo sapiens; conditions: Homo sapiens, HPAF-II;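 note: growth inhibition of HPAF-II cells, read out with a cell viability assay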
Description: SANGER: Inhibition of human HPAF-II cell growth in a cell viability assay.

Huh-7 = assay: cells; assay type: functional, cell-based, Homo sapiens; conditions: Homo sapiens, Huh-7;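 note: HuH-7 cell growth inhibition, read out with a cell viability assay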
Description: SANGER: Inhibition of human HuH-7 cell growth in a cell viability assay.

CAL-148 = assay: cells; assay type: functional, cell-based, Homo sapiens; conditions: Homo sapiens, CAL-148
Description: SANGER: Inhibition of human CAL-148 cell growth in a cell viability assay.

YKG-1 = assay: cells; assay type: functional, cell-based, Homo sapiens; conditions: Homo sapiens, YKG-1;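 note: cell growth inhibition, read out with a viability assay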
Description: SANGER: Inhibition of human YKG-1 cell growth in a cell viability assay.

ESS-1 = assay: cells; assay type: functional, cell-based, Homo sapiens; conditions: Homo sapiens, ESS-1;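 note: growth inhibition of human ESS-1 cells, read out by a cell viability assay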
Description: SANGER: Inhibition of human ESS-1 cell growth in a cell viability assay.

IM-9 = assay: SANGER: Inhibition of human IM-9 cell growth in a cell viability assay.; assay type: functional, cell-based; conditions: Homo sapiens, IM-9
G-402 = assay: cells; assay type: functional, cell-based, Homo sapiens; conditions: Homo sapiens, G-402
Description: SANGER: Inhibition of human G-402 cell growth in a cell viability assay.

TALL-1 = assay: cells; assay type: functional, cell-based, Homo sapiens; conditions: Homo sapiens, TALL-1;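 note: growth inhibition of cultured human TALL-1 cells, read out by a cell viability assay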
Description: SANGER: Inhibition of human TALL-1 cell growth in a cell viability assay.

ABC-1 = assay: cells; assay type: functional, cell-based, Homo sapiens; conditions: Homo sapiens, ABC-1;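 note: growth inhibition of human ABC-1 cells, read out by a cell viability assay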
Description: SANGER: Inhibition of human ABC-1 cell growth in a cell viability assay.

NCI-H520 = assay: cells; assay type: functional, cell-based, Homo sapiens; conditions: Homo sapiens, NCI-H520;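 note: growth inhibition of NCI-H520 cells, measured by a cell viability assay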
Description: SANGER: Inhibition of human NCI-H520 cell growth in a cell viability assay.

NCI-H2227 = assay: cells; assay type: functional, cell-based, Homo sapiens; conditions: Homo sapiens, NCI-H2227;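 note: growth inhibition of the human cell line, read out with a cell viability assay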
Description: SANGER: Inhibition of human NCI-H2227 cell growth in a cell viability assay.

HSC-3 = assay: cells; assay type: functional, cell-based, Homo sapiens; conditions: Homo sapiens, HSC-3
Description: SANGER: Inhibition of human HSC-3 cell growth in a cell viability assay.

ASPC1 = assay: cells; assay type: functional, cell-based, Homo sapiens; conditions: Homo sapiens, ASPC1;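 note: growth inhibition of AsPC-1 cells, read out with a cell viability assay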
Description: SANGER: Inhibition of human AsPC-1 cell growth in a cell viability assay.

RPMI-7951 = assay: cells; assay type: functional, cell-based, Homo sapiens; conditions: Homo sapiens, RPMI-7951
Description: SANGER: Inhibition of human RPMI-7951 cell growth in a cell viability assay.

NCI-H64 = assay: cells; assay type: functional, cell-based, Homo sapiens; conditions: Homo sapiens, NCI-H64;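 note: growth inhibition of NCI-H64 cells, read out with a cell viability assay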
Description: SANGER: Inhibition of human NCI-H64 cell growth in a cell viability assay.

NCI-H1792 = assay: cells; assay type: functional, cell-based, Homo sapiens; conditions: Homo sapiens, NCI-H1792;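 note: growth inhibition of human NCI-H1792 cells, read out as cell viability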
Description: SANGER: Inhibition of human NCI-H1792 cell growth in a cell viability assay.

U-698-M = assay: cells; assay type: functional, cell-based, Homo sapiens; conditions: Homo sapiens, U-698-M
Description: SANGER: Inhibition of human U-698-M cell growth in a cell viability assay.

OE19 = assay: cells; assay type: functional, cell-based, Homo sapiens; conditions: Homo sapiens, OE19;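 note: growth inhibition of OE19 cells, measured through a cell viability read-out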
Description: SANGER: Inhibition of human OE19 cell growth in a cell viability assay.

NCI-H2081 = assay: cells; assay type: functional, cell-based, Homo sapiens; conditions: Homo sapiens, NCI-H2081;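 note: growth inhibition of human NCI-H2081 cells, read out with a cell viability assay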
Description: SANGER: Inhibition of human NCI-H2081 cell growth in a cell viability assay.

NCI-H2171 = assay: cells; assay type: functional, cell-based, Homo sapiens; conditions: Homo sapiens, NCI-H2171;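 note: growth inhibition of human NCI-H2171 cells, read out by a cell viability assay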
Description: SANGER: Inhibition of human NCI-H2171 cell growth in a cell viability assay.

KYSE-140 = assay: cells; assay type: functional, cell-based, Homo sapiens; conditions: Homo sapiens, KYSE-140;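 note: cell viability assay measuring growth inhibition in human KYSE-140 cells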
Description: SANGER: Inhibition of human KYSE-140 cell growth in a cell viability assay.

HCC1395 = assay: cells; assay type: functional, cell-based, Homo sapiens; conditions: Homo sapiens, HCC1395;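 note: growth inhibition of HCC1395 cells, read out by a cell viability assay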
Description: SANGER: Inhibition of human HCC1395 cell growth in a cell viability assay.

NCI-H2452 = assay: cells; assay type: functional, cell-based, Homo sapiens; conditions: Homo sapiens, NCI-H2452;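 note: growth inhibition of NCI-H2452 cells, read out with a cell viability assay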
Description: SANGER: Inhibition of human NCI-H2452 cell growth in a cell viability assay.

CMK = assay: cells; assay type: functional, cell-based, Homo sapiens; conditions: Homo sapiens, CMK;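 note: growth inhibition of CMK cells, read out as cell viability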
Description: SANGER: Inhibition of human CMK cell growth in a cell viability assay.

SCC-4 = assay: cells; assay type: functional, cell-based, Homo sapiens; conditions: Homo sapiens, SCC-4;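 note: growth inhibition of human SCC-4 cells, read out as cell viability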
Description: SANGER: Inhibition of human SCC-4 cell growth in a cell viability assay.

ME-180 = assay: cells; assay type: functional, cell-based, Homo sapiens; conditions: Homo sapiens, ME-180;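 note: cell viability assay measuring growth inhibition of ME-180 cells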
Description: SANGER: Inhibition of human ME-180 cell growth in a cell viability assay.

MHH-CALL-2 = assay: cells; assay type: functional, cell-based, Homo sapiens; conditions: Homo sapiens, MHH-CALL-2;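 note: growth inhibition of the cell line, read out in a cell viability assay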
Description: SANGER: Inhibition of human MHH-CALL-2 cell growth in a cell viability assay.

LB647-SCLC = assay: cells; assay type: functional, cell-based, Homo sapiens; conditions: Homo sapiens, LB647-SCLC;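 note: cell growth inhibition, read out by a viability assay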
Description: SANGER: Inhibition of human LB647-SCLC cell growth in a cell viability assay.

ST486 = assay: SANGER: Inhibition of human ST486 cell growth in a cell viability assay.; assay type: functional, cell-based; conditions: Homo sapiens, ST486
A2780 = assay: cells; assay type: functional, cell-based, Homo sapiens; conditions: Homo sapiens, A2780;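 note: growth inhibition of A2780 cells, read out with a cell viability assay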
Description: SANGER: Inhibition of human A2780 cell growth in a cell viability assay.

HLE = assay: cells; assay type: functional, cell-based, Homo sapiens; conditions: Homo sapiens, HLE;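 note: growth inhibition of human HLE cells, read out by a cell viability assay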
Description: SANGER: Inhibition of human HLE cell growth in a cell viability assay.

YT = assay: cells; assay type: functional, cell-based, Homo sapiens; conditions: Homo sapiens, YT
Description: SANGER: Inhibition of human YT cell growth in a cell viability assay.

Measured: IC50

C=C(c1ccc(C(=O)O)cc1)c1cc2c(cc1C)C(C)(C)CCC2(C)C [BEXAROTENE]
7970 nM: MC-IXC
> 8000 nM: EB-3 | J82 | TCC-SUP | MFE-280 | SCC-9 | A673 | HCT-15 | RT-112 | NCI-H28 | MIA PaCa-2 | NCI-H650 | NCI-H2087 | GCT | 786-0 | HPAF-II | Huh-7 | CAL-148 | YKG-1 | ESS-1 | IM-9 | G-402 | TALL-1 | ABC-1 | NCI-H520 | NCI-H2227 | HSC-3 | ASPC1 | RPMI-7951 | NCI-H64 | NCI-H1792 | U-698-M | OE19 | NCI-H2081 | NCI-H2171 | KYSE-140 | HCC1395 | NCI-H2452 | CMK | SCC-4 | ME-180 | MHH-CALL-2 | LB647-SCLC | ST486 | A2780 | HLE | YT

CCC/C=C/C=C/C(=O)O[C@H]1/C(=C/C(=O)OC)C[C@H]2C[C@H]([C@@H](C)O)OC(=O)C[C@H](O)C[C@@H]3C[C@H](OC(C)=O)C(C)(C)[C@](O)(C[C@@H]4C/C(=C/C(=O)OC)C[C@H](/C=C/C(C)(C)[C@]1(O)O2)O4)O3 [BRYOSTATIN 1]
4.13 nM: YKG-1
> 8 nM: EB-3 | J82 | TCC-SUP | MFE-280 | SCC-9 | MC-IXC | A673 | HCT-15 | RT-112 | NCI-H28 | MIA PaCa-2 | NCI-H650 | NCI-H2087 | GCT | 786-0 | HPAF-II | Huh-7 | CAL-148 | ESS-1 | IM-9 | G-402 | TALL-1 | ABC-1 | NCI-H520 | NCI-H2227 | HSC-3 | ASPC1 | RPMI-7951 | NCI-H64 | NCI-H1792 | U-698-M | OE19 | NCI-H2081 | NCI-H2171 | KYSE-140 | HCC1395 | NCI-H2452 | CMK | SCC-4 | ME-180 | MHH-CALL-2 | LB647-SCLC | ST486 | A2780 | HLE | YT

COc1cccc2c1C(=O)c1c(O)c3c(c(O)c1C2=O)C[C@@](O)(C(=O)CO)C[C@@H]3O[C@H]1C[C@H](N)[C@H](O)[C@H](C)O1 [DOXORUBICIN]
771 nM: EB-3
34.2 nM: MIA PaCa-2
15.5 nM: ST486
35.8 nM: HLE
50.4 nM: KYSE-140
99.1 nM: G-402
527 nM: HPAF-II
572 nM: NCI-H1792
130 nM: RPMI-7951
218 nM: NCI-H650
49.4 nM: NCI-H2087
68.8 nM: A2780
200 nM: OE19
234 nM: NCI-H2081
74.5 nM: HSC-3
258 nM: Huh-7
83.4 nM: ABC-1
133 nM: NCI-H64
861 nM: GCT
> 1020 nM: TCC-SUP | MFE-280 | SCC-9 | HCT-15 | NCI-H28 | TALL-1 | NCI-H2227 | HCC1395 | NCI-H2452 | YT
11.1 nM: ESS-1
21.3 nM: J82
123 nM: LB647-SCLC
8.47 nM: 786-0
267 nM: NCI-H520
139 nM: U-698-M
32.9 nM: RT-112
441 nM: NCI-H2171
26.9 nM: CAL-148
216 nM: A673
855 nM: ASPC1
359 nM: MHH-CALL-2
18.8 nM: YKG-1
184 nM: SCC-4
67.9 nM: MC-IXC
51.4 nM: IM-9
77.4 nM: CMK
186 nM: ME-180
